According to article PMC2917201 (Molecular cell, 2010):

Biological target: T1, MuSK(cyto) (Rattus norvegicus, UniProt Q62838)
T1 sequence (Q62838 529-868): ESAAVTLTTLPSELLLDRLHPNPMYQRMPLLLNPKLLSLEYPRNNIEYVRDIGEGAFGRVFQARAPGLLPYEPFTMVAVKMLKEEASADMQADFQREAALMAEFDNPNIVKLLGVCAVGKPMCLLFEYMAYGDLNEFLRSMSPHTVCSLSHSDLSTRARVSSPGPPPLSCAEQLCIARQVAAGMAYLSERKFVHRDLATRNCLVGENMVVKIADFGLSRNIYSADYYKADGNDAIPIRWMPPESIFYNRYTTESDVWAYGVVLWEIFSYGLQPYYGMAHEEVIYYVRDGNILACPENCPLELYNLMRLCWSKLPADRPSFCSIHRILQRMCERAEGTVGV
Test: autophosphorylation, anti-pTyr754 immunoblot
Format: biochemical
Settings: 5 mM ATP, 50 mM MgCl2, 25 mM Tris-HCl pH 7.5, 0.5 mM sodium vanadate, 10 mM TCEP, room temperature; MuSK alone, no Dok7

Q: For `Nc1ncnc2c1ncn2[C@@H]1O[C@H](COP(=O)(O)OP(=O)(O)OP(=O)(O)O)[C@@H](O)[C@H]1O` [ATP], which “autophosphorylation, anti-pTyr754 immunoblot” value is on record?
A: With MuSK alone, incubation with Mg-ATP results in a relatively slow rate of autophosphorylation
